Source: ChEMBL document CHEMBL1857833, “Screening and optimization of specific chemical series against human African Trypanosomiasis (HAT)”
Values after ≈ are worked out from the molar mass of the structure shown. Values joined by “and” are separate entries in the source; they are usually repeats but may differ in a detail not shown here. Equal entries are not always repeated.

Experiments:
[1] = (§1) DNDI: Cytotoxicity against L929 mouse fibroblasts, 72 hour.; assay type: toxicity, cell-based; conditions: mouse, L929 mouse fibroblasts
[2] = target: T1, MDR1 (ABCB1) (Homo sapiens, UniProt P08183); experiment: DNDI: % of compound recovered from apical to basolateral permeability assay in MDCK cells transfected with human MDR1 after 60 mins at a concentration of 3uM in the presence of GF120918; assay type: ADME, cell-based, Canis lupus familiaris; conditions: dog, MDCK-MDR1, with GF120918 (concentration not stated)
T1 sequence (P08183 whole entry): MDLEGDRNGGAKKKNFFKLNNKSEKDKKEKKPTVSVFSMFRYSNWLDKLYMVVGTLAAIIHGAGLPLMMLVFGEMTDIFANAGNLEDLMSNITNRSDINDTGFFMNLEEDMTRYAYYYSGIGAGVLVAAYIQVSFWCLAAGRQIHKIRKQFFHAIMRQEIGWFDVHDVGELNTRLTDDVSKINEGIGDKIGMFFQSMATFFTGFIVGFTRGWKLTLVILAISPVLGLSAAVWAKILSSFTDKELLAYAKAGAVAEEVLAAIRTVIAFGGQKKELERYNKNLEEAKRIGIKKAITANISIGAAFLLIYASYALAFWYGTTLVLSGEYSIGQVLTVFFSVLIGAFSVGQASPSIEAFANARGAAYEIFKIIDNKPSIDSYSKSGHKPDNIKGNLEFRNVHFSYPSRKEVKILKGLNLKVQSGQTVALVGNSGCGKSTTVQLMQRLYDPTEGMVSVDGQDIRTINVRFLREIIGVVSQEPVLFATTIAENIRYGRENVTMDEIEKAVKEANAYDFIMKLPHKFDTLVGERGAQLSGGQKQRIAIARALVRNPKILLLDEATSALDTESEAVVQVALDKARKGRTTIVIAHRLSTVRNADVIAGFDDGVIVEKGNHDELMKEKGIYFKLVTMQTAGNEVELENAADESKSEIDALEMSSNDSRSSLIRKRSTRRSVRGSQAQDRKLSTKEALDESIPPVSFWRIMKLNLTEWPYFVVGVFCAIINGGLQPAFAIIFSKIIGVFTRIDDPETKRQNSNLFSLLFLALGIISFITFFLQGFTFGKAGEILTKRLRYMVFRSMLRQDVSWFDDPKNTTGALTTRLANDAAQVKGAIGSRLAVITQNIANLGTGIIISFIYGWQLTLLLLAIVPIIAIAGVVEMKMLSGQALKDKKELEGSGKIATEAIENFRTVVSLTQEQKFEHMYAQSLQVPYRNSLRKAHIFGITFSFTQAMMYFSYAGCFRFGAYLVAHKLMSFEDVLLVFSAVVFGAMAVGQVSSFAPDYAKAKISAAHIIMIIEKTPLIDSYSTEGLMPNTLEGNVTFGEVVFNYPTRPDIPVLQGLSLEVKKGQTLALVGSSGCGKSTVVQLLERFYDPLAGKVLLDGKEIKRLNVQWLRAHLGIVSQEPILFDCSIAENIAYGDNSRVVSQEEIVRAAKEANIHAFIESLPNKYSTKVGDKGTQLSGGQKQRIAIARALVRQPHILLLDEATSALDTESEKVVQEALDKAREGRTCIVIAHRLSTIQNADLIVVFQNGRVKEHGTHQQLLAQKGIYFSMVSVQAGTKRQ

[3] = DNDI: Solubility in phosphate buffered saline at pH7.4 measured by nephelometry at room temperature (NEPH-RT); assay type: physicochemical; conditions: pH 7.4
[4] = system: Trypanosoma brucei; experiment: DNDI: Inhibition of Human African Trypanosomiasis, SBRI 427, in vitro; assay type: functional, organism-based
[5] = DNDI: Lipophilicity measured in Chromatographic hydrophobicity index (CHI) assay, pH 7.4; assay type: physicochemical; conditions: buffer
[6] = target: T1, MDR1 (ABCB1); experiment: DNDI: % of compound recovered from apical to basolateral permeability assay in MDCK cells transfected with human MDR1 after 60 mins at a concentration of 3uM; assay type: ADME, cell-based, Canis lupus familiaris; conditions: dog
[7] = target: T1, MDR1 (ABCB1); experiment: DNDI: Apparent permeability from apical to basolateral side of the MDCK cell transfected with human MDR1after 60 mins at a concentration of 3uM; assay type: ADME, cell-based, Canis lupus familiaris; conditions: dog, MDCK-MDR1
[8] = DNDI: half-life in mouse S9 microsomes at a concentration of 1uM; assay type: ADME, subcellular, Liver, S9 fraction
[9] = DNDI: in vitro intrinsic clearance in mouse liver microsomes at a concentration of 10uM; assay type: ADME, Microsome; conditions: read-out: CLint in vitro
[10] = system: Trypanosoma brucei rhodesiense; experiment: DNDI: Inhibition of Human African Trypanosomiasis (HAT), STIB 900, in vitro; assay type: functional, organism-based
[11] = system: Trypanosoma cruzi; experiment: DNDI: Inhibition of Chagas Disease parasite Trypanosoma cruzi (Tulahuen LacZ, Clone C4), in vitro.; assay type: functional, organism-based
[12] = DNDI: in vitro intrinsic clearance in human liver microsomes at a concentration of 10uM; assay type: ADME, Microsome
[13] = DNDI: half life in human liver microsomes at a concentration of 10uM; assay type: ADME, Microsome
[14] = DNDI: Cytotoxicity against L-6 rat myoblasts from skeletal muscle cells; assay type: toxicity, cell-based, L6; conditions: L-6 rat skeletal muscle myoblasts
[15] = DNDI: Cytotoxicity against L929 mouse fibroblasts, CYTO-SP, 24 hour; assay type: toxicity, cell-based; conditions: mouse, L929 mouse fibroblasts
[16] = DNDI: half life in mouse liver microsomes at a concentration of 10uM; assay type: ADME, Microsome
[17] = system: Trypanosoma brucei; experiment: DNDI: Mean survival time in days (MSD) of mice after intraperitoneal injection of Human African Trypanosomiasis (HAT), EATRO 110, in vivo at 20 mg/kg/day for 4 days.; assay type: functional, Mus musculus
[18] = system: Trypanosoma brucei; experiment: DNDI: Mean survival time in days (MSD) of mice after intraperitoneal injection of Human African Trypanosomiasis (HAT), EATRO 110, in vivo at 5 mg/kg/day for 4 days.; assay type: functional, Mus musculus
[19] = in vitro; conditions: mouse, t (1 / 2)
Description: (§2) DNDI: half life in mouse liver microsomes at a concentration of 1uM

[20] = mouse, microsomes, 1 µM
Description: (§3) DNDI: in vitro intrinsic clearance in mouse liver microsomes at a concentration of 1uM

[21] = DNDI: Solubility in phosphate buffered saline at pH7.4 measured by optical density (turbidimetry) at room temperature (OD-RT); assay type: physicochemical; conditions: pH 7.4
[22] = system: Plasmodium falciparum; experiment: DNDI: Inhibition of the malaria parasite Plasmodium falciparum, in vitro; assay type: functional, organism-based; conditions: K1
[23] = system: Leishmania donovani; experiment: DNDI: Inhibition of formation of Leishmania donovani (strain MHOM/ET/67/L82) axenic amastigotes, in vitro.; assay type: functional, organism-based
[24] = system: Trypanosoma brucei; experiment: DNDI: Inhibition of Human African Trypanosomiasis, Cross 22, in vitro; assay type: functional, organism-based
[25] = in vitro; conditions: mouse
Description: as §3

[26] = mouse, microsomes, 1 µM; remark: listed apart in the source
Description: as §2

[27] = in vitro; conditions: human, microsomes, CLint in vitro
Description: DNDI: in vitro intrinsic clearance in human liver microsomes at a concentration of 1uM

[28] = in vitro; conditions: human, microsomes, t (1 / 2)
Description: DNDI: half life in human liver microsomes at a concentration of 1uM

[29] = system: L929; experiment: as §1; assay type: toxicity, cell-based; conditions: l929
[30] = target: T1, MDR1 (ABCB1); experiment: DNDI: Efflux ratio for permeability from basolateral to apical side to apical to basolateral side of MDCK cells transfected with human MDR1; assay type: ADME, cell-based, Canis lupus familiaris; conditions: dog, MDCK-MDR1; read-out: Calculated Ratio
[31] = Trypanosoma brucei, SBRI 427, read-out: IC50

Row | SMILES | IC50 at 72 h [1] | solubility kinetic [3] | IC50 [4, 31] | chromatographic logD [5] | microsomal CLint at 10 µM [9] | IC50 [10] | IC50 [11] | CLint in vitro [12] | half-life at 10 µM [13] | IC50 [14] | IC50 at 24 h [15] | half-life at 10 µM [16] | MSD [17] | half-life at 1 µM ([19]; microsomes) | CLint in vitro [20] | solubility kinetic [21] | IC50 [22] | IC50 [23] | IC50 [24] | other results
1 | CN(C)CCNc1cc(-c2ccccc2)nc2cc(-c3ccc(F)cc3)nn12 | > 10 µg/mL | 25 µM (≈ 9.39 µg/mL) | 1.53 µg/mL (≈ 4.08 µM) | 5.2 | – | – | – | – | – | – | – | – | – | – | – | – | – | – | – | recovery at 1 h, 3 µM [2]: 70%; recovery at 1 h, 3 µM [6]: 100%; Papp A→B at 1 h, 3 µM [7]: 8.84 ×10⁻⁶ cm/s; half-life at 1 µM [8]: > 5.83 h
2 | O/N=C(\NCC1CC1)c1ccccc1-c1ccccc1 | > 10 µg/mL | > 200 µM | 1.15 µg/mL (≈ 4.32 µM) | 4.04 | 117 µL/min/mg | 8.1 µg/mL (≈ 30.4 µM) | > 30 µg/mL | 5 µL/min/mg | 10.6 h | 72.3 µg/mL (≈ 271 µM) | > 50 µg/mL | 0.417 h | 1 days | 0.15 h | 93 µL/min/mg | > 200 µM | 3.14 µg/mL (≈ 11.8 µM) | 32.3 µg/mL (≈ 121 µM) | – | logD [5]: 3.96; MSD [18]: 4 days
3 | CCCCCC(C)NCc1coc(-c2ccc(OCCCC)cc2)n1 (centres undefined) | 1.54 µg/mL (≈ 4.47 µM) | – | 0.38 µg/mL (≈ 1.1 µM) | 5.01 | 15 µL/min/mg | 0.278 µg/mL (≈ 0.807 µM) | 1.5 µg/mL (≈ 4.35 µM) | 28 µL/min/mg | 1.73 h | 2.66 µg/mL (≈ 7.72 µM) | > 50 µg/mL | 3.12 h | – | – | 10 µL/min/mg | 1.6 µM (≈ 0.551 µg/mL) | 0.825 µg/mL (≈ 2.39 µM) | 4.92 µg/mL (≈ 14.3 µM) | 0.36 µg/mL (≈ 1.04 µM) | IC50 [4]: 0.29 µg/mL and 0.22 µg/mL; microsomal CLint at 1 µM ([25]; liver microsomes): 12 µL/min/mg; half-life at 1 µM ([19]; liver microsomes): 1.17 h; t (1 / 2) [26]: 84 min
4 | CCCCc1ccc(-c2nc(CNC3CCCCCC3)co2)cc1 | 1.23 µg/mL (≈ 3.77 µM) | 13 µM (≈ 4.24 µg/mL) | 0.36 µg/mL (≈ 1.1 µM) | 5.49 | – | 0.383 µg/mL (≈ 1.17 µM) | 1.43 µg/mL (≈ 4.38 µM) | – | – | 2.85 µg/mL (≈ 8.73 µM) | > 50 µg/mL | – | 3.5 days | – | – | – | 0.739 µg/mL (≈ 2.26 µM) | 10.1 µg/mL (≈ 30.8 µM) | 0.4 µg/mL (≈ 1.23 µM) | microsomal CLint at 1 µM [27]: 18 µL/min/mg; IC50 [4]: 0.18 µg/mL and 0.33 µg/mL; half-life at 1 µM [28]: 0.8 h; MSD [18]: 4 days
5 | CCCCCC(C)NCc1coc(-c2ccc(OC(C)C)cc2)n1 (centres undefined) | 2.58 µg/mL (≈ 7.81 µM) | – | 1.07 µg/mL (≈ 3.24 µM) | 4.56 | 36 µL/min/mg | – | – | 37 µL/min/mg | 1.3 h | – | > 50 µg/mL | 1.35 h | – | 0.583 h | 24 µL/min/mg | 12.5 µM (≈ 4.13 µg/mL) | – | – | – | IC50 [29]: 3.42 µg/mL (≈ 10.3 µM)
6 | CCCCCC(C)NCc1coc(-c2ccc(CCCC)cc2)n1 (centres undefined) | 1.48 µg/mL (≈ 4.51 µM) | – | – | 5.51 | 16 µL/min/mg | 0.186 µg/mL (≈ 0.566 µM) | 2.8 µg/mL (≈ 8.52 µM) | 30 µL/min/mg | 1.62 h | 2.31 µg/mL (≈ 7.03 µM) | > 50 µg/mL | 2.98 h | 3.4 days | 1.22 h | 11 µL/min/mg | 1.6 µM (≈ 0.526 µg/mL) | 0.647 µg/mL (≈ 1.97 µM) | 5.25 µg/mL (≈ 16 µM) | 0.3 µg/mL (≈ 0.913 µM) | microsomal CLint at 1 µM ([25]; microsomes): 12 µL/min/mg; t (1 / 2) [26]: 81 min
7 | Cc1cc(NCCN(C)C)n2nc(-c3cccc(F)c3)cc2n1 | > 10 µg/mL | 100 µM (≈ 31.3 µg/mL) | > 5 µg/mL | 4.09 | – | – | – | – | – | – | – | – | – | – | – | – | – | – | – | recovery at 1 h, 3 µM [2]: 108%; efflux ratio [30]: 0.14; recovery at 1 h, 3 µM [6]: 97%; Papp A→B at 1 h, 3 µM [7]: 46.6 ×10⁻⁶ cm/s; half-life at 1 µM [8]: 0.317 h
